In patent US20070190628A1, “Yeast food composition for fuel ethanol production” (priority 2006, published 2007):

Tested on: active dry yeast “z”
Test: Individual nutritive elements added to normal gravity corn mash: fermentation rate and viable cell numbers
Assay type: cell-based, Saccharomyces cerevisiae
Experimental: Normal gravity corn mash was prepared using ground #2 yellow dent corn obtained from Commercial Alcohols Inc. (275 Bloomfield Road, Chatham, Ontario, Canada N7M 5J5). […] One part by weight of ground corn was dispersed into three parts of 50° C., sterile dH2O containing 1 mM CaCl2.2H2O. To minimize the development of excessive viscosity during gelatinization, 1.25 mL of high temperature (HT-2X) α-amylase such as was supplied by Alltech Inc. in Nicholasville, Ky., USA (HT-2X α-amylase is no longer available from Alltech), was added per litre of mash as the ground corn was dispersed. It should be noted that if Ca-independent alpha amylases are used such as Termamyl® SC supplied by Novozymes North America in Franklinton, N.C., USA, then the 1 mM CaCl2.2H2O is not required. Following the addition of the ground corn and a five-minute mixing period to produce a homogenous mixture, the temperature was increased until the mash reached 94° C. where it was held at this temperature for 60 min with continued stirring. The temperature of the gelatinized starch was then reduced to 80° C. and liquefied by a second dose of HT-2X αx-amylase (1.25 mL/L) with continued stirring for 30 min. Sterile Celstir® (Wheaton Scientific, Millville, N.J.) fermentor vessels were filled with 1 L aliquots of this mash. To each fermentor vessel, filter-sterilized (25 mm, 0.2 μm Acrodisc® syringe filter, Pall Corporation, Ann Arbor, Mich.) urea (Fisher Scientific, Co., NJ), was added to achieve a final concentration of 8 mM. Cold-sterilization of the mash was assured by the addition of 100 μL of diethyl pyrocarbonate (DEPC, Sigma Chemical Co.) per litre of mash mixing the mash mechanically (IKA-Labortechnik, Staufen, Germany) for 5-10 min followed by cooling the fermentor vessels at 4° C. cold room for ˜72 hrs. The fermentor vessels were then removed from the cold room, connected to 30° C. water bath circulators and mixed. Glucoamylase in the form of Allcholase II 400 supplied by Alltech Inc. was then added (1.5 mL/L mash) 30 min prior to yeast inoculation to initiate saccharification of the dextrins formed during gelatinization and liquefaction (it should be noted that Allcholase II 400 is no longer available and any glucoamylase may be used). The mash thus prepared contained 19-20 g of dissolved solids/100 mL of mash as determined by a digital density meter analyzer (model DMA-45, Anton Paar KG, Graz, Austria) maintained at 20° C.
Eleven grams of a commercially available active dry yeast, designated as “z”, were rehydrated by dispersal in 99 mL of preheated 38° C., 0.1% (w/v) sterile water and incubation for 20 min with periodic shaking in a 38° C. water bath. Fermentor vessels containing normal density corn mash were prepared as described above and inoculated with sufficient active yeast to provide an initial viable cell count of 1×10^7 cells per mL mash. The optimal fermentation temperature for the active dry yeast “z” was determined by conducting fermentations at 30°, 34°, 36°, 38°, and 40° C.
The effects of individual elements on yeast cell biomass production and fermentation in a fermentation feedstock were assessed by separately supplementing of corn mash with nitrogen, phosphorus, magnesium, sulphur and zinc. Nitrogen effects were assessed in corn mashes by the additions of urea to provide final concentrations in the mash of […]. Phosphorus effects were assessed in corn mashes amended with 16 mM urea, by the additions of (NH4)2HPO4 (BDH Chemicals Inc, Toronto, Ont., MW: 132.06) to provide final concentrations of 0, 0.1, 0.2, 0.4, 0.6, and 0.8 g of (NH4)2HPO4/L of mash. Magnesium effects were assessed in corn mashes amended with 16 mM urea, by the additions of MgSO4.7H2O (BDH Chemicals Inc., MW. 246.48) to provide final concentrations of 0, 0.025, 0.049, 0.074, 0.099, 0.148, 0.197 g of MgSO4.7H2O/L of mash. […]

NC(N)=O [urea]
highest yeast cell counts (corn mash with 8 mM and 16 mM urea): 3.3×10^8 CFU/mL | increase of cell numbers (corn mash with 8 mM and 16 mM urea, versus no urea): 50% | increase of the rate of dissolved solids utilization (urea 16-32 mM in corn mash, 30° C.): approximately 2 fold | urea supplementation rate at which the maximum fermentation rate was observed (urea tested up to 32 mM): 16 mM
